For assay [1], the target named is T1, Receptor-type tyrosine-protein phosphatase C (Homo sapiens, UniProt P08575).
T1 sequence (P08575 whole entry): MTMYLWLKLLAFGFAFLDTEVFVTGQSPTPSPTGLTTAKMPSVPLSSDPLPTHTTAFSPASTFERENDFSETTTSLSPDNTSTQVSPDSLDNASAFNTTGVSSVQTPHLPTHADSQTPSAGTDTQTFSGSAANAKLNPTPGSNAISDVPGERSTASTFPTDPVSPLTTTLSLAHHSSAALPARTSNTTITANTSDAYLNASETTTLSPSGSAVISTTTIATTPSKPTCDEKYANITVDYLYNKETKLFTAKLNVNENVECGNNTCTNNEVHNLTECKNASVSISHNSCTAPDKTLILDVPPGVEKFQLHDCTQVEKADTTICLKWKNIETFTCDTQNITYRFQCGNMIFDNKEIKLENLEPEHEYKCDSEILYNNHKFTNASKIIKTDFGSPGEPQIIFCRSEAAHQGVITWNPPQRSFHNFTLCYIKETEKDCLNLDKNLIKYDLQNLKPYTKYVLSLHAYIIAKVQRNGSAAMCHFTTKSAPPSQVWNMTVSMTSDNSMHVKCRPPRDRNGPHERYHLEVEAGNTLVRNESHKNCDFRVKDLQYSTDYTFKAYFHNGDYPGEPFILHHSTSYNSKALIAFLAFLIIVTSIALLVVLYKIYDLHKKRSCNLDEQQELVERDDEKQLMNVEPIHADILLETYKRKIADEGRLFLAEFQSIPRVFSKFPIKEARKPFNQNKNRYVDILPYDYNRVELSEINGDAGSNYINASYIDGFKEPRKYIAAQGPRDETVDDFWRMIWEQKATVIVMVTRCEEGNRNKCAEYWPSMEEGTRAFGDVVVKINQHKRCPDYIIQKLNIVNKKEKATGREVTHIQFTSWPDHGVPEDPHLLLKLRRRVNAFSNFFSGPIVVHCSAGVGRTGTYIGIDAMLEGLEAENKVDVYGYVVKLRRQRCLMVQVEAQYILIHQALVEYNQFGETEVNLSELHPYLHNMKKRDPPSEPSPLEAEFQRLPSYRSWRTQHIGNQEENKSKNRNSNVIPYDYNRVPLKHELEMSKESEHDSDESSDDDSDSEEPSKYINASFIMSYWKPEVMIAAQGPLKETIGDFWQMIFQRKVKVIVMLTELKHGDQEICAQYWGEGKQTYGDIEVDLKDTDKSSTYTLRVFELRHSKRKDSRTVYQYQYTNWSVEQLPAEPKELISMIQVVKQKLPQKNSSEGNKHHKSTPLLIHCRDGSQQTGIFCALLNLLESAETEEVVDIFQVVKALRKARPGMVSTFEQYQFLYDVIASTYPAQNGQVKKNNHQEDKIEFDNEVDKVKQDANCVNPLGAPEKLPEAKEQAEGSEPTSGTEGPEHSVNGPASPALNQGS
As to the kind of experiment: Inhibitory activity against CD45 protein-tyrosine phosphatase.

Assay [2] concerns the target T2, Tyrosine-protein phosphatase non-receptor type 2 (Homo sapiens, UniProt P17706).
T2 sequence (P17706 whole entry): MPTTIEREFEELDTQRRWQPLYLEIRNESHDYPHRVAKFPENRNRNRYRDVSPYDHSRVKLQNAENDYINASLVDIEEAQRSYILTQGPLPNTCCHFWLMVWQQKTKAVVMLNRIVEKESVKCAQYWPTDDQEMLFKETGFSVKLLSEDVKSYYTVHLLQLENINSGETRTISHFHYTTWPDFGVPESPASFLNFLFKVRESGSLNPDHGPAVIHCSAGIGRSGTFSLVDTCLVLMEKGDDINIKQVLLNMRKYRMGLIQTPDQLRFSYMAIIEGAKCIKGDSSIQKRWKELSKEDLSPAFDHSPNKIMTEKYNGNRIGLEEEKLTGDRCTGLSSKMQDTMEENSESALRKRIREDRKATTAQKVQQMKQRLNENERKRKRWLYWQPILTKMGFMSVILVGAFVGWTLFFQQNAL
As to the kind of experiment: Inhibitory activity against T cell protein tyrosine phosphatase. The class given is cell-based.

Assay [3] concerns the target T3, Tyrosine-protein phosphatase non-receptor type 1 (Homo sapiens, UniProt P18031).
T3 sequence (P18031 whole entry): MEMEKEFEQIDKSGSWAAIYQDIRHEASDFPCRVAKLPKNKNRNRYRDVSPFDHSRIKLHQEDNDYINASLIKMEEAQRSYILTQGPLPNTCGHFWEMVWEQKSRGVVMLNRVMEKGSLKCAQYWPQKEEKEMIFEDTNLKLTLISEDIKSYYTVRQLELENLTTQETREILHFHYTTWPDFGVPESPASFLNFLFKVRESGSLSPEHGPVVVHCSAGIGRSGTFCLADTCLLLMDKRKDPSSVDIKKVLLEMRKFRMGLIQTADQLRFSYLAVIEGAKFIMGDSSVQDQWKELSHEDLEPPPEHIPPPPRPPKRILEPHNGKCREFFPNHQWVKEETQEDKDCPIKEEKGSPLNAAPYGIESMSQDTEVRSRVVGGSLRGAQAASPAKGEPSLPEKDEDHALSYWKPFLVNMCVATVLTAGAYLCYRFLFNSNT
As to the kind of experiment: Inhibitory activity against Protein tyrosine phosphatase 1B (PTP1B) over-expressed in intact Sf9 cell assay.

The target in assay [4] is T3, Tyrosine-protein phosphatase non-receptor type 1. As to the kind of experiment: Inhibitory activity against protein tyrosine phosphatase 1B (PTP1B) was determined in fluorescein diphosphate (FDP) assay.

The results in this text go back to ChEMBL document CHEMBL1146670, “Structure based design of a series of potent and selective non peptidic PTP-1B inhibitors” (Bioorg Med Chem Lett, 2004).

Structures are written as SMILES. pIC50: −log10 of the molar value.

A word on the pIC50: it is the negative decadic logarithm of the IC50, by convention in mol/L.

`O=P(O)(O)C(F)(F)c1ccc(CC(Cc2ccc(C(F)(F)P(=O)(O)O)cc2)(c2ccc(F)c(F)c2)n2nnc3ccccc32)cc1`: the pIC50 was 4.30 in assay [1] and 8.10 in assay [2].
Regarding `O=C(OCc1ccccc1)C(Cc1ccc(C(F)(F)P(=O)(O)O)cc1)(c1ccccc1)n1nnc2ccccc21` (stereo unspecified), the pIC50 was 4.30 in assay [1], 5.77 in assay [3], 6.62 in assay [4] and 6.54 in assay [2].
Turning to `O=P(O)(O)C(F)(F)c1ccc(CC(Cc2ccc(C(F)(F)P(=O)(O)O)c(Br)c2)(c2ccccc2)n2nnc3ccccc32)cc1` (stereo unspecified), the pIC50 is 4.60 in assay [1], 6.80 in assay [3], 8.30 in assay [4] and 8.40 in assay [2].
Regarding `O=P(O)(O)C(F)(F)c1ccc(CC(Cc2ccc(-c3ccccc3)cc2)(c2ccccc2)n2nnc3ccccc32)cc1` (stereo unspecified), the pIC50 in assay [1] was 4.16; in assay [3], 5.80.
Regarding `Cc1ccc2cc(-c3ccc(CC(Cc4ccc(C(F)(F)P(=O)(O)O)cc4)(c4ccccc4)n4nnc5ccccc54)cc3)cc(P(=O)(O)O)c2n1` (stereo unspecified), the pIC50 was 4.30 in assay [1] and 6.66 in assay [3].
Take `COC(=O)c1ccc(C(Cc2ccc(C(F)(F)P(=O)(O)O)cc2)(Cc2ccc(C(F)(F)P(=O)(O)O)cc2)n2nnc3ccccc32)cc1`: the pIC50 in assay [1] was 4.30; in assay [3] it was 7.08; in assay [4] it was 7.96; in assay [2], 7.80.
The compound `O=P(O)(O)c1cccc(-c2ccc(CC(Cc3ccc(C(F)(F)P(=O)(O)O)cc3)(c3ccccc3)n3nnc4ccccc43)cc2)c1` (stereo unspecified) had a pIC50 in assay [1] of 4.30.
`O=P(O)(O)C(F)(F)c1ccc(CC(Cc2ccc(C(F)(F)P(=O)(O)O)cc2)(c2ccc3ccccc3n2)n2nnc3ccccc32)cc1`: the pIC50 in assay [1] was 4.30; in assay [3] it was 7.21; in assay [4], 7.70; in assay [2] it was 7.55.
The matching figures for `O=P(O)(O)C(F)(F)c1ccc(/C=C/CC(Cc2ccc(C(F)(F)P(=O)(O)O)cc2)(c2ccccc2)n2nnc3ccccc32)cc1` (stereo unspecified): 4.30, 6.92, 7.80 and 8.00.
For `O=P(O)(O)C(F)(F)c1ccc(CC(Cc2ccc(C(F)(F)P(=O)(O)O)cc2)(c2ccccc2)n2nnc3ccccc32)cc1`, the pIC50 in assay [1] was 4.30; in assay [3] it was 6.92; in assay [2], 8.00.
Take `O=P(O)(O)C(F)(F)c1ccc(CC(Cc2ccc(-c3ccccc3-c3nn[nH]n3)cc2)(c2ccccc2)n2nnc3ccccc32)cc1` (stereo unspecified): the pIC50 in assay [1] was 4.30; in assay [3], 6.43; in assay [4], 7.13; in assay [2], 7.07.
For the compound `O=P(O)(O)C(F)(F)c1ccc(CC(C/C=C/c2ccccc2)(c2ccccc2)n2nnc3ccccc32)cc1` (stereo unspecified), the pIC50 in assay [1] is 4.30; in assay [3], 6.34; in assay [4], 7.31; in assay [2], 7.31.
Turning to `O=P(O)(O)C(F)(F)c1ccc(CC(Cc2ccc(C(F)(F)P(=O)(O)O)cc2)(c2nnn[nH]2)n2nnc3ccccc32)cc1`, the pIC50 in assay [1] was 5.14; in assay [3], 5.92; in assay [4], 7.49; in assay [2], 7.80.
In the case of `O=P(O)(O)C(F)(F)c1ccc(CC(Cc2ccc(C(F)(F)P(=O)(O)O)cc2)(c2nc3ccccc3s2)n2nnc3ccccc32)cc1`, the pIC50 was 4.96 in assay [1], 7.06 in assay [3], 7.74 in assay [4] and 7.70 in assay [2].
The matching figures for `NS(=O)(=O)c1ccccc1-c1ccc(CC(Cc2ccc(C(F)(F)P(=O)(O)O)cc2)(c2ccccc2)n2nnc3ccccc32)cc1` (stereo unspecified): 4.30, 6.03, 7.16 and 7.09.
In the case of `O=P(O)(O)C(F)(F)c1ccc(CC(CCCc2ccccc2)(c2ccccc2)n2nnc3ccccc32)cc1` (stereo unspecified), the pIC50 in assay [1] is 4.52; in assay [3], 6.19; in assay [4], 7.34; in assay [2], 7.14.
`O=P(O)(O)C(F)(F)c1ccc(CC(Cc2ccc(Br)cc2)(c2ccccc2)n2nnc3ccccc32)cc1` (stereo unspecified): the negative-log IC50 (pIC50) in assay [1] is 4.77; in assay [3], 5.80; in assay [4], 7.05; in assay [2] it was 7.04.
For `O=P(O)(O)C(F)(F)c1ccc(CC(c2ccccc2)n2nnc3ccccc32)cc1` (stereo unspecified), the results for the pIC50 in assay [1], in assay [4] and in assay [2] were less than 4.30, 5.09 and 5.14, respectively.
Take `O=P(O)(O)C(F)(F)c1ccc(CC(Cc2ccc(OCc3ccccc3)cc2)(c2ccccc2)n2nnc3ccccc32)cc1` (stereo unspecified): the pIC50 in assay [1] is 4.19; in assay [3] it was 5.39; in assay [4] it was 7.01; in assay [2] it was 7.21.
The like results for `O=P(O)(O)C(F)(F)c1ccc(CC(Cc2ccc(C(F)(F)P(=O)(O)O)cc2)(c2nc(-c3ccccc3)cs2)n2nnc3ccccc32)cc1` were, in that order, 4.30, 6.72, 7.72 and 7.74.
`COC(CC(C)C)c1ccc2cc(-c3ccc(CC(Cc4ccc(C(F)(F)P(=O)(O)O)cc4)(c4ccccc4)n4nnc5ccccc54)cc3)cc(P(=O)(O)O)c2n1` (stereo in doubt; 21a): the pIC50 in assay [1] is 4.30.
As to `COC(CC(C)C)c1ccc2cc(-c3ccc(CC(Cc4ccc(C(F)(F)P(=O)(O)O)cc4)(c4ccccc4)n4nnc5ccccc54)cc3)cc(P(=O)(O)O)c2n1` (stereo in doubt; 21b), the pIC50 in assay [1] was 4.30; in assay [2] it was 7.39.
On to `COC(CC(C)C)c1ccc2cc(-c3ccc(CC(Cc4ccc(C(F)(F)P(=O)(O)O)cc4)(c4ccccc4)n4nnc5ccccc54)cc3)cc(P(=O)(O)O)c2n1` (stereo in doubt; 21c), for which the figures for the pIC50 in assay [1] and in assay [2] were 4.30 and 5.95, respectively.
In the case of `COC(CC(C)C)c1ccc2cc(-c3ccc(CC(Cc4ccc(C(F)(F)P(=O)(O)O)cc4)(c4ccccc4)n4nnc5ccccc54)cc3)cc(P(=O)(O)O)c2n1` (stereo in doubt; 21d), the negative logarithm of the IC50 (pIC50) was 4.49 in assay [1] and 6.03 in assay [2].
